The values below come from patent publication US6492427B2, “Methods for treating multiple sclerosis” (priority 1998, dated 2002).

Assay [1] relates to oligodendroglial cells. Kind of assay: In situ DNA end labeling (ApopTag), counts of apoptotic nuclei. Type of assay: cell-based, rat. Conditions: 6, 12, 15, 18, 24 h, both experimental series. On the procedure:
The ApopTag™ method utilizes an ApopTag™ in situ apoptosis detection kit (Oncor, Md., USA), which detects nuclei with, cut 3′-OH ends of DNA. Oligodendrocytes at 16 DIV were treated with BM, BM-D9, IM and IM-D9 for 6, 12, 15, 18 and 24 h. Cells were fixed in 2% paraformaldehyde, followed by three washes in 0.1M PBS and permeabilization with 0.05% Tween-20 in PBS for 10 min at room temperature. Endogenous peroxidase was quenched with 1% H2O2 in PBS for 5 min at room temperature. Coverslips were then covered with 1 X equilibration buffer for 30 min at room temperature and then incubated with terminal deoxynucleotidyl transferase (TdT)/reaction buffer (76 μl of reaction buffer+32 μl of TdT enzyme) for 1 h at 37° C. A stop wash buffer incubation for 30 min at 37° C. was used to terminate the 3′-OH DNA extension reaction. After a PBS wash, the coverslips were incubated with antidigoxigenin peroxidase antibody. After three washes with 0.1M PBS, chromogenic detection was carried out using DAB (1.5 mg/ml) mixed with hydrogen peroxide (H2O2; 0.02% v/v) yielding a brown reaction product. Coverslips were dehydrated in ascending grade alcohol series, cleared with xylene and mounted on slides using a drop of permount. ApopTag™ positive nuclei were randomly counted in triplicate (described in section 2.5), for each of the time points, for experimental series-I and II.

In assay [2] the test system is oligodendroglial cells. In words: Total counts of intact methylene blue stained cells. Type of assay: cell-based, rat. The following applies: BM-D9 (10^−9 M), 24 h. On the procedure:
Cells were trophically withdrawn by replacing the media with a serum free, chemically-defined base media (BM) lacking insulin and IGF-I (Bottenstein et al., 1988). The base media consisited of DMEM supplemented with penicillin (50 IU/ml); streptomycin (50 μg/ml); 1 mM sodium pyruvate; 50 μg/ml transferrin; 0.005 μg/ml sodium selenite; 16 μg/ml putrescine; 0.006 μg/ml progesterone and 0.1 mg/ml bovine serum albumin. All the cells were washed with BM twice before exposing them to individual treatment conditions. Control cells were washed and placed in BM supplemented with 2.5 ng/ml IGF-I and 5 μg/ml insulin to form the insulin media (IM).
To study the effects of trophic-like agents on the survival of oligodendroglial […].
Methylene blue (3,7-bis (dimethylamino)-phenothiazin-5-ium chloride), a ribonucleic acid (RNA) binding agent commonly used as an alternative nucleic acid stain, can also be used as a biological staining agent to stain cells in order to observe their morphological features. […]
Cell counts were performed for 25 randomly chosen 100 power fields on each coverslip. […] Three coverslips was counted for each treatment condition. In subsequent experiments, different cell types (for example, O-2A progenitors, PROLs, OLs and astrocytes) were morphologically identified on each field and were counted separately for experimental series-I and II. […]

The test system of another assay is CA1 hippocampal neurons. Conditions: cited from earlier work.
The next assay deals with ASTs. In words: Methylene blue counts of individual cell types: ASTs. Type of assay: cell-based, rat. The following applies: BM-D9, 24 h. As to the method:
Methylene blue (3,7-bis (dimethylamino)-phenothiazin-5-ium chloride), a ribonucleic acid (RNA) binding agent commonly used as an alternative nucleic acid stain, can also be used as a biological staining agent to stain cells in order to observe their morphological features. At 24 h, cells were fixed in 2% paraformaldehyde for 15 min at room temperature. Briefly, cells were washed twice with PBS and 100 μl of 1% methylene blue (Mallinckrodt Chemical Co., MO, USA) solution containing 1% AgNO3 was added for 10 min to the wells containing coverslips. Subsequently, the coverslips were washed with two changes of distilled water and absolute ethanol, cleared with xylene and mounted on slides with permount.
Cell counts were performed for 25 randomly chosen 100 power fields on each coverslip. Two randomly generated coordinates drawn from a uniform distribution of random numbers specified the center of each field. The random numbers were generated on a computer by using Microcal Origin 4.0 program. […] Three coverslips was counted for each treatment condition. In subsequent experiments, different cell types (for example, O-2A progenitors, PROLs, OLs and astrocytes) were morphologically identified on each field and were counted separately for experimental series-I and II. […]

Assay [3] has as its system CA1, CA3 and CA4 hippocampal neurons. The following applies: 0.25 mg/kg daily, multiple time points up to 14 days (Paterson et al., 1997); cited from earlier work.
For assay [4], the system named is mitochondrial membrane potential (ΔψM) of oligodendroglial cells. Kind of assay: CMTMR estimation of mitochondrial membrane potential by confocal microscopy. Type of assay: cell-based, rat. The following applies: BM + 10^−9 M, 18 h. As to the method:
The ΔψM was assessed by the addition of a lipophilic, potentiometric dye, chloromethyl-tetramethylrhodamine methyl ester (CMTMR, Mitotracker Orange™ Molecular Probes, Eugene, Oreg.). The CMTMR dye reacts with the thiol groups on proteins and peptides to form aldehyde fixable conjugates. Entry of the negatively charged mitochondrial matrix compartment is proportional to the difference in the membrane potential. Therefore, the CMTMR fluorescence labels the mitochondrial membrane potential generated due to the negativity difference between the mitochondrial matrix and the outside of the mitochondria. Upon cell fixation, CMTMR remains in the mitochondria and is not washed out unlike other mitochondrial potentiometric dyes like rhodamine123.
Oligodendrocytes at 16 DIV were placed in trophically deprived BM for 18 h or treated with BM-D9 or BM-Ds9. […] The cells were incubated in CMTMR at 37° C. for 15 min. The cells were then fixed with 4% cold paraformaldehyde on ice for 30 min and washed twice with 0.1M PBS. Consequently, the coverslips were mounted on glass slides with Aquamount (Gurr, England).
Individual mitochondria labeled with CMTMR were resolved by confocal microscopy. A Leica true confocal scanning (TCS) 4D microscope coupled to an argon-krypton laser (Omnichrome, USA) was used for cell imaging. A pinhole size of 20 with an excitation filter wavelength of 568 nm and an emission filter wavelength of 590 nm was used to image the CMTMR labeled mitochondria. Each field of the coverslip was imaged using an oil-immersion, 100 X, 1.3 N.A. objective at 512 by 512 by 8 bits per pixel resolution, background offset of −1 and line averaged 32 times in bi-directional line scan mode. Care was taken not to exceed the dynamic range of the gray value display. The confocal images obtained were saved on an optical drive in a tagged image file format (TIFF).
Fluorescence intensity of individual mitochondria was measured using the Metamorph™ program. Metamorph™ compiles measurements of objects in a 8-bit image ranging from gray values 0 (background) and 255. In order to obtain fluorescence intensity measures, a rectangular region tool of 2×2 pixels was used to measure two randomly selected areas within each mitochondrion. A total of ten mitochondria obtained equally from all the regions of each cell were measured within each image. About 20 images were analyzed for each treatment condition thereby giving a sum of about 400 mitochondrial fluorescence intensity measures. The raw values were then further graphed and analyzed with the Microcal Origin 4.1 program. Frequency count was performed on the data, which classified the data in ordered bins. A frequency distribution was obtained with lower bin value set at 0 and higher bin value set at 260.

Entries after “also recorded” stand apart in the source; their conditions may differ. Like-named read-outs stand apart in the source and are kept apart here.

Turning to `C#CCN(C)[C@H](C)Cc1ccccc1` [(−)-deprenyl, R-(−)-N,α-Dimethyl-N-2-propynyl phenethylamine], the “number of ApopTag positive nuclei” value in the assay with oligodendroglial cells [1] (10^−9 M added to IM) is listed as “did not significantly change the number of ApopTag™ positive nuclei”; with oligodendroglial cells [1] (10^−9 M added to base media (BM)), “significantly decreased the numbers of ApopTag™ nuclei in both experimental series”; in the assay on oligodendroglial cells [1] (10^−9 M added to base media (BM), listed as (−)-Deprenyl), “reduced the incidence of apoptotic nuclei at all the time points”. In addition, the “number of intact methylene blue stained cells, % of those in BM” value with oligodendroglial cells [2] (experimental series-I) worked out at 576%; in the assay with oligodendroglial cells [2] (experimental series-II) it was 255%. For the same compound, the “CA1 hippocampal neuronal survival” value with CA1 hippocampal neurons (0.25 mg/kg, days 3 or 7 (Lahtinen et al., 1997)) was “significant increase in survival at both time points”; in the assay on CA1 hippocampal neurons (10 mg/kg daily from 1-2 hours after 5 minutes occlusion, day 4 (Ballabriga et al., 1997)), “no increase in survival”. The “AST cell numbers compared to those in BM” value with ASTs (experimental series II) was 132%; in the assay on ASTs (experimental series-I), 570%. For the same compound, the “CA1, CA3 and CA4 hippocampal neuronal survival” value in assay [3] is “markedly significant increases in neuronal survival”. In assay [4], the “mitochondrial CMTMR fluorescence distributions (ΔψM) in ASTs, PROLs and OLs” value is listed as “not significantly different to those found for IM; also recorded: prevented the decrease in ΔψM”.
